# Measured values from patent US8822447B2, “Indazole compounds useful as ketohexokinase inhibitors” (Janssen Pharmaceutica NV, priority 2010, dated 2014).
# Structures can show the parent of a compound that is named as a salt.
# Target: KHK (Homo sapiens (Human), UniProt P50053)
# Assay: In Vitro KHK Enzyme Assay (HTMS);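 further: primary screen measuring inhibition of KHK-catalysed conversion of D-fructose into fructose 1-phosphate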
# Type: biochemical
# Details: 200 μM fructose, 100 μM ATP, 2 nM KHK, 60 min at 25° C.; Fructose-1-P detected by high throughput mass spectrometry
# Description: An enzymatic assay was developed to measure KHK-mediated conversion of D-fructose to Fructose-1-P (F-1-P) using High Throughput Mass Spectroscopy (HTMS) as a means of product detection. This assay served as a primary screen to evaluate the ability to inhibit KHK enzyme activity and it has been adapted to high throughput mass spectrometry (HTMS, BioTrove RapidFire™) format for higher throughput.
# The compounds to be tested were dosed in 12-points concentration from 511 μM to 0.5 μM. […] The assay was carried out in 384-well plate format.
# Chain of KHK (P50053 whole entry): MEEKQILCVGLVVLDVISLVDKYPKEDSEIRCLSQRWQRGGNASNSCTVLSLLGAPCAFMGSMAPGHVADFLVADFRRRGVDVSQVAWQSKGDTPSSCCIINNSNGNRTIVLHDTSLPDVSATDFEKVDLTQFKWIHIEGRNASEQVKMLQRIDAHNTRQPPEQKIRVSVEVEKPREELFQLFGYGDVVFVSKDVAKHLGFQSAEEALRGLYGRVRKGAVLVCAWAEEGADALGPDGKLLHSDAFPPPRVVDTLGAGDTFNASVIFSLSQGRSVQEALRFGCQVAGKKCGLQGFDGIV
row,IC50 [nM],Compound
1,5340,"CSc1nn(-c2ccccc2)c2cc(N3CCN(C(=O)C4CCCN4)CC3)ccc12 (centres unmarked) [Compound 33, (4-(3-(Methylthio)-1-phenyl-1H-indazol-6-yl)piperazin-1-yl)(pyrrolidin-2-yl)methanone hydrochloride]"
2,5360,"CCc1nn(-c2ccccc2)c2cc(N3CC4CNCC4C3)ccc12 (centres unmarked) [Compound 50, 3-Ethyl-6-(hexahydropyrrolo[3,4-c]pyrrol-2(1H)-yl)-1-phenyl-1H-indazolehydrochloride]"
3,300,"CSc1nn(-c2ccccc2)c2cc(NC(=O)C3(N)CCNCC3)ccc12 [Compound 157, 4-Amino-piperidine-4-carboxylic acid (3-methylsulfanyl-1-phenyl-1H-indazol-6-yl)-amide]"
4,6060,"CSc1nn(-c2ccccc2)c2cc(N3CCN(Cc4cccnc4)CC3)ccc12 [Compound 32, 3-(Methylthio)-1-phenyl-6-(4-(pyridin-3-ylmethyl)piperazin-1-yl)-1H-indazole hydrochloride]"
5,1430,"CCOc1cc(-c2ccc(N3CCNCC3)cc2)nc2c1c(CC)nn2-c1ccccc1 [Compound 102, 4-Ethoxy-3-ethyl-1-phenyl-6-(4-piperazin-1-yl-phenyl)-1H-pyrazolo[3,4-b]pyridine]"
6,7730,"Cc1nn(-c2ccccc2)c2cc(N3CCN(c4ccncc4)CC3)ccc12 [Compound 65, 3-Methyl-1-phenyl-6-(4-(pyridin-4-yl)piperazin-1-yl)-1H-indazole hydrochloride]"
7,2030,"CSc1nn(-c2ccccc2)c2cc(N3CCN(C(=O)c4ccncc4)CC3)ccc12 [Compound 17, (4-(3-(Methylthio)-1-phenyl-1H-indazol-6-yl)piperazin-1-yl)(pyridin-4-yl)methanone]"
8,540,"CSc1nn(-c2ccccc2)c2cc(N3CCCNCC3)ccc12 [Compound 11, 6-(1,4-Diazepan-1-yl)-3-(methylthio)-1-phenyl-1H-indazole hydrochloride]"
9,1600,"Cc1nn(-c2ccccc2)c2cc(N3CCN(C4CNC4)CC3)ccc12 [Compound 62, 6-(4-(Azetidin-3-yl)piperazin-1-yl)-3-methyl-1-phenyl-1H-indazole hydrochloride]"
10,830,"COc1ccc(-n2nc(SC)c3ccc(N4CCNCC4)cc32)cc1 [Compound 122, 1-(4-Methoxy-phenyl)-3-methylsulfanyl-6-piperazin-1-yl-1H-indazole]"
11,4450,"CSc1nn(-c2ccccc2)c2cc(N3CCN(C4CCNC4)CC3)ccc12 (centres unmarked) [Compound 22, 3-(Methylthio)-1-phenyl-6-(4-(pyrrolidin-3-yl)piperazin-1-yl)-1H-indazole hydrochloride]"
12,890,"CCN(CC1CCNCC1)c1ccc2c(SC)nn(-c3ccccc3)c2c1 [Compound 108, Ethyl-(3-methylsulfanyl-1-phenyl-1H-indazol-6-yl)-piperidin-4-ylmethyl-amine]"
13,670,"CSc1nn(-c2ccccc2)c2cc(C(=O)C3CCNCC3)ccc12 [Compound 142, (3-Methylsulfanyl-1-phenyl-1H-indazol-6-yl)-piperidin-4-yl-methanone]"
14,2680,"CSc1nn(-c2ccccc2)c2cc(NC(=O)Cc3ccncc3)ccc12 [Compound 9, N-(3-(Methylthio)-1-phenyl-1H-indazol-6-yl)-2-(pyridin-4-yl)acetamide]"
15,450,"CSc1nn(-c2ccccc2)c2cc(NC(=O)NC3CCNC3)ccc12 (centres unmarked) [Compound 4, 1-(3-(Methylthio)-1-phenyl-1H-indazol-6-yl)-3-(pyrrolidin-3-yl)urea hydrochloride]"
16,460,"CSc1nn(-c2ccccc2)c2cc(N3CCN(C4CCNC4)C3=O)ccc12 (centres unmarked) [Compound 25, 1-(3-(Methylthio)-1-phenyl-1H-indazol-6-yl)-3-(pyrrolidin-3-yl)imidazolidin-2-one hydrochloride]"
17,1010,"Cc1nn(-c2ccccc2)c2cc(N3CCC(N4CCNCC4)C3)ccc12 (centres unmarked) [Compound 61, 3-Methyl-1-phenyl-6-(3-(piperazin-1-yl)pyrrolidin-1-yl)-1H-indazole hydrochloride]"

row,IC50 [nM],Compound
1,790,"CSc1nn(-c2ccccc2)c2cc(C=CC3CCCNC3)ccc12 (centres unmarked) [Compound 176, 3-Methylsulfanyl-1-phenyl-6-(2-piperidin-3-yl-vinyl)-1H-indazole]"
2,680,"CSc1nn(-c2ccccc2)c2cc(NC(=O)CN3CCNCC3)ccc12 [Compound 131, N-(3-Methylsulfanyl-1-phenyl-1H-indazol-6-yl)-2-piperazin-1-yl-acetamide]"
3,9060,"Cc1nn(-c2ccccc2)c2cc(N3CCN(C4CCNCC4)CC3)ccc12 [Compound 64, 3-Methyl-1-phenyl-6-(4-(piperidin-4-yl)piperazin-1-yl)-1H-indazole hydrochloride]"
4,1470,"CSc1nn(-c2ccccc2)c2cc(N3CCN(C4CCNCC4)C3=O)ccc12 [Compound 26, 1-(3-(Methylthio)-1-phenyl-1H-indazol-6-yl)-3-(piperidin-4-yl)imidazolidin-2-one hydrochloride]"
5,> 51000,"CSc1nn(-c2ccc(N)cc2)c2cc(CN3CCNCC3)ccc12 [Compound 115, 4-(3-Methylsulfanyl-6-piperazin-1-ylmethyl-indazol-1-yl)-phenylamine]"
6,300,"CSc1nn(-c2ccccc2)c2cc(N3CCN(c4ccncc4)CC3)ccc12 [Compound 29, 3-(Methylthio)-1-phenyl-6-(4-(pyridin-4-yl)piperazin-1-yl)-1H-indazole]"
7,> 10000,"CSc1nn(-c2ccccc2)c2cc(C(=O)c3ccc4nonc4c3)ccc12 [Compound 174, Benzo[1,2,5]oxadiazol-5-yl-(3-methylsulfanyl-1-phenyl-1H-indazol-6-yl)-methanone]"
8,1720,"CCc1nn(-c2ccccc2)c2nc(-c3ccc(NC4CCNCC4)cc3)cc(O)c12 [Compound 100, 3-Ethyl-1-phenyl-6-[4-(piperidin-4-ylamino)-phenyl]-1H-pyrazolo[3,4-b]pyridin-4-ol]"
9,440,"CSc1nn(-c2ccccc2)c2cc(OCC3CCNCC3)ccc12 [Compound 107, 3-Methylsulfanyl-1-phenyl-6-(piperidin-4-ylmethoxy)-1H-indazole]"
10,8100,"COc1nn(-c2ccccc2)c2cc(N3CCN(c4ccncc4)CC3)ccc12 [Compound 77, 3-Methoxy-1-phenyl-6-(4-(pyridin-4-yl)piperazin-1-yl)-1H-indazole hydrochloride]"
11,1560,"CSc1nn(-c2ccccc2)c2cc(N3CCN(c4ccccn4)CC3)ccc12 [Compound 24, 3-(Methylthio)-1-phenyl-6-(4-(pyridin-2-yl)piperazin-1-yl)-1H-indazole]"
12,2820,"CSc1nn(-c2ccccc2)c2cc(N3CCN(C4CNC4)CC3)ccc12 [Compound 21, 6-(4-(Azetidin-3-yl)piperazin-1-yl)-3-(methylthio)-1-phenyl-1H-indazole hydrochloride]"
13,680,"CCc1nn(-c2ccccc2)c2cc(NC(=O)c3cccc(C(=N)N)c3)ccc12 [Compound 40, 3-Carbamimidoyl-N-(3-ethyl-1-phenyl-1H-indazol-6-yl)benzamide acetate]"
14,2030,"CSc1nn(-c2ccccc2)c2cc(N3CCN(Cc4ccncc4)CC3)ccc12 [Compound 18, 3-Methylsulfanyl-1-phenyl-6-(4-pyridin-4-ylmethyl-piperazin-1-yl)-1H-indazole Hydrochloride]"
15,310,"COc1nn(-c2ccccc2)c2cc(N3CCN(C4CCNC4)CC3)ccc12 (centres unmarked) [Compound 75, 3-Methoxy-1-phenyl-6-(4-(pyrrolidin-3-yl)piperazin-1-yl)-1H-indazole hydrochloride]"
16,420,"CSc1nn(-c2ccccc2)c2cc(NCC3CCNCC3)ccc12 [Compound 112, (3-Methylsulfanyl-1-phenyl-1H-indazol-6-yl)-piperidin-4-ylmethyl-amine]"

row,Compound,IC50 [nM]
1,"Cc1nn(-c2ccccc2)c2cc(N3CCNC(C)C3)ccc12 (centres unmarked) [Compound 71, 3-Methyl-6-(3-methylpiperazin-1-yl)-1-phenyl-1H-indazole formic acid salt]",400
2,"CCc1nn(-c2ccccc2)c2nc(N3CCN(c4cccnc4)CC3)ncc12 [Compound 83, 3-Ethyl-1-phenyl-6-(4-(pyridin-3-yl)piperazin-1-yl)-1H-pyrazolo[3,4-d]pyrimidine trifluoroacetic acid]",> 30000
3,"CSc1nn(-c2ccc([N+](=O)[O-])cc2)c2cc(C3=CCNCC3)ccc12 [Compound 124, 3-Methylsulfanyl-1-(4-nitro-phenyl)-6-(1,2,3,6-tetrahydro-pyridin-4-yl)-1H-indazole]",490
4,"CCc1nn(-c2ccccc2)c2cc(N3CCN(C)CC3)ccc12 [Compound 54, 3-Ethyl-6-(4-methylpiperazin-1-yl)-1-phenyl-1H-indazole]",4520
5,"Cc1nn(-c2ccccc2)c2cc(N3CCNCC3)ccc12 [Compound 59, 3-Methyl-1-phenyl-6-(piperazin-1-yl)-1H-indazole]",1280
